Experiment: xn = mol fraction of the nth substance listed

COCCOCCOCCOC + CCOC(=O)OCC
298.15 K, 101.33 kPa
Settings	viscosity [mPa·s]
x1 = 0.0103	0.759
x1 = 0.0175	0.767
x1 = 0.0246	0.775
x1 = 0.0367	0.788
x1 = 0.0576	0.813
x1 = 0.0787	0.837
x1 = 0.0958	0.856
x1 = 0.119	0.879
x1 = 0.1509	0.913
x1 = 0.1983	0.966
x1 = 0.2499	1.021
x1 = 0.3024	1.081
x1 = 0.3233	1.105
x1 = 0.3543	1.142
x1 = 0.4034	1.199
x1 = 0.4614	1.268
x1 = 0.5022	1.324
x1 = 0.552	1.386
x1 = 0.6112	1.463
x1 = 0.6561	1.519
x1 = 0.7044	1.583
x1 = 0.7371	1.624
x1 = 0.7905	1.693
x1 = 0.8464	1.764
x1 = 0.9175	1.85
x1 = 0.951	1.894

CC(C)(C)O + C1COCCO1
298.15 K, 101 kPa
Settings	viscosity [mPa·s]
x2 = 0.0878	2.941
x2 = 0.1776	2.179
x2 = 0.2717	1.773
x2 = 0.3647	1.496
x2 = 0.4695	1.304
x2 = 0.571	1.197
x2 = 0.6659	1.134
x2 = 0.7778	1.114
x2 = 0.791	1.111
x2 = 0.8424	1.11
x2 = 0.8786	1.118

CC(C)(C)O + CC#N
viscosity [mPa·s]
Settings	298.15 K	303.15 K	308.15 K	313.15 K
101 kPa, x1 = 0.0566	0.3785	0.3701	0.3589	–
101 kPa, x1 = 0.1198	0.4021	0.3935	0.3794	–
101 kPa, x1 = 0.1887	0.4346	0.4229	0.4056	–
101 kPa, x1 = 0.2685	0.4818	0.461	0.4406	–
101 kPa, x1 = 0.3568	0.5555	0.5226	0.4902	–
101 kPa, x1 = 0.4511	0.6735	0.6105	0.5659	–
101 kPa, x1 = 0.5606	0.9097	0.8128	0.7495	–
101 kPa, x1 = 0.6858	1.341	1.18	1.058	–
101 kPa, x1 = 0.831	2.213	1.884	1.63	–
101.3 kPa, x2 = 0.1675	1.925	1.606	1.359	1.158
101.3 kPa, x2 = 0.3117	1.187	1.035	0.909	0.805
101.3 kPa, x2 = 0.4368	0.863	0.756	0.68	0.615
101.3 kPa, x2 = 0.5471	0.66	0.604	0.553	0.509
101.3 kPa, x2 = 0.6446	0.552	0.511	0.474	0.442
101.3 kPa, x2 = 0.73	0.476	0.446	0.418	0.394
101.3 kPa, x2 = 0.8084	0.428	0.404	0.382	0.362
101.3 kPa, x2 = 0.8784	0.394	0.375	0.357	0.34
101.3 kPa, x2 = 0.9421	0.376	0.359	0.342	0.33

Nc1ccccc1 + CC(C)(C)O
303 K, 101.33 kPa
Settings	viscosity [mPa·s]
x1 = 0.1	2.851
x1 = 0.2	2.363
x1 = 0.3	2.307
x1 = 0.4	2.218
x1 = 0.5	2.257
x1 = 0.6	2.305
x1 = 0.7	2.407
x1 = 0.8	2.524
x1 = 0.9	2.766

COCCOCCOCCO + CCCC(C)O
viscosity [mPa·s], 101 kPa
Settings	x1 = 0.0047	x1 = 0.0177	x1 = 0.0299	x1 = 0.0546	x1 = 0.0827	x1 = 0.1089
298.15 K	3.349	3.306	3.258	3.191	3.143	3.122
308.15 K	2.319	2.316	2.3	2.288	2.285	2.295
318.15 K	1.672	1.676	1.684	1.695	1.712	1.732

CCNCC + CCCCCCCCO
viscosity [mPa·s], 100 kPa
Settings	x1 = 0.0804	x1 = 0.16	x1 = 0.2402	x1 = 0.3517	x1 = 0.4405	x1 = 0.5609	x1 = 0.65	x1 = 0.7404	x1 = 0.8495	x1 = 0.9402
293.15 K	8.22	7.36	6.53	5.45	4.61	3.56	2.82	2.13	1.33	0.7
303.15 K	5.75	5.14	4.54	3.76	3.18	2.44	1.94	1.46	0.93	0.53
313.15 K	4.15	3.7	3.26	2.69	2.28	1.75	1.4	1.06	0.69	0.42
323.15 K	3.05	2.71	2.39	1.97	1.67	1.3	1.04	0.8	0.54	0.34

C[C@@H]1CC[C@@H]2C[C@H]1C2(C)C + C[C@H]1CC[C@@H]2C[C@H]1C2(C)C
100 kPa, x2 = 0.9048
Settings	viscosity [mPa·s]
293.15 K	2.24
298.15 K	2.023
303.15 K	1.838
308.15 K	1.679
313.15 K	1.538
318.15 K	1.415
323.15 K	1.308

COCCOCCOCCO + CC(C)O
viscosity [mPa·s], 101 kPa
Settings	x1 = 0.0079	x1 = 0.0146	x1 = 0.0314	x1 = 0.0413	x1 = 0.0581	x1 = 0.0775	x1 = 0.1025
298.15 K	2.089	2.09	2.099	2.116	2.128	2.159	2.207
308.15 K	1.568	1.574	1.594	1.608	1.628	1.683	1.706
318.15 K	1.202	1.21	1.235	1.252	1.266	1.3	1.343

CCNCC + CC(C)O
viscosity [mPa·s], 100 kPa
Settings	293.15 K	298.15 K	303.15 K	308.15 K	313.15 K	318.15 K	323.15 K
x1 = 0.0215	2.3	1.99	1.72	1.49	1.31	1.15	1.01
x1 = 0.0807	1.99	1.74	1.51	1.31	1.152	1.02	0.9
x1 = 0.1595	1.63	1.44	1.256	1.09	0.97	0.86	0.78
x1 = 0.2401	1.33	1.187	1.05	0.924	0.82	0.732	0.67
x1 = 0.3491	1.02	0.91	0.806	0.72	0.64	0.58	0.54
x1 = 0.4399	0.84	0.75	0.671	0.598	0.54	0.491	0.46
x1 = 0.5598	0.65	0.58	0.527	0.48	0.435	0.396	0.37
x1 = 0.6501	0.551	0.5	0.455	0.416	0.376	0.345	0.32
x1 = 0.7395	0.48	0.43	0.39	0.36	0.33	0.304	0.283
x1 = 0.8496	0.41	0.376	0.343	0.319	0.296	0.271	0.251
x1 = 0.94	0.36	0.336	0.315	0.293	0.274	0.257	0.243
x2 = 0.0137	0.33	0.314	0.298	0.282	0.267	0.251	0.238

COCCOCCOCCO + CCCN
298.15 K, 101 kPa
Settings	viscosity [mPa·s]
x1 = 0.0053	0.369
x1 = 0.0087	0.378
x1 = 0.0251	0.415
x1 = 0.0368	0.44
x1 = 0.068	0.514
x1 = 0.081	0.549
x1 = 0.105	0.617
x1 = 0.1254	0.682
x1 = 0.1752	0.861
x1 = 0.2146	1.034
x1 = 0.2627	1.279
x1 = 0.2934	1.456
x1 = 0.3347	1.724
x1 = 0.3651	1.935
x1 = 0.4217	2.362
x1 = 0.471	2.749
x1 = 0.5445	3.35
x1 = 0.574	3.599
x1 = 0.6281	4.032
x1 = 0.6683	4.359
x1 = 0.7088	4.66
x1 = 0.7716	5.104
x1 = 0.812	5.359
x1 = 0.8595	5.626
x1 = 0.8867	5.774
x1 = 0.9185	5.92

CCNCC + CCCCCCCO
viscosity [mPa·s], 100 kPa
Settings	x1 = 0.0806	x1 = 0.1606	x1 = 0.2415	x1 = 0.3492	x1 = 0.4394	x1 = 0.5613	x1 = 0.6506	x1 = 0.7401	x1 = 0.8503	x1 = 0.9414
293.15 K	6.26	5.55	4.87	4.03	3.37	2.55	2.02	1.52	0.947	0.532
303.15 K	4.47	3.94	3.45	2.83	2.36	1.78	1.4	1.07	0.7	0.43
313.15 K	3.3	2.91	2.53	2.07	1.72	1.3	1.03	0.79	0.52	0.35
323.15 K	2.47	2.17	1.89	1.54	1.28	0.97	0.78	0.6	0.42	0.3

From the CheMixHub viscosity set
